Tested on: T1, AncLophoSR (ancestral lophotrochozoan steroid receptor, ML reconstruction; GenBank KC261633)
T1 construct: resurrected LBD with the hinge domain and C-terminus of CgER, Gal4-DBD fusion
Test: Gal4-DBD fusion dual luciferase reporter assay in transfected CHO-K1 cells
Format: cell-based, synthetic construct

Q: For C[C@]12CC[C@@H]3c4ccc(O)cc4CC[C@H]3[C@@H]1CC[C@@H]2O [17β-estradiol], which EC50 is on record?
A: 12 nM
